This passage reports MIC results from paper PMC4744035, “In Vivo, In Vitro, and In Silico Characterization of Peptoids as Antimicrobial Agents” (PLoS ONE, 2016).

Assay in all cases: microbe, parasite or virus in culture
The test system of assay [1] is K. pneumonia 63575 (ESBL). To be noted: Klebsiella pneumoniae. The method, then: (§1) The MICs of test agents were measured using a modified broth micro-dilution method in Difco Mueller Hinton medium, on a panel of bacterial pathogens that were both susceptible and resistant to common antibiotics (S1 File). Briefly, serial dilutions were performed in 0.01% acetic acid containing 0.2% bovine serum albumin at 10-fold the desired final concentration. Ten μL of the 10-fold concentrated test reagents were added to each well of a 96-well polypropylene microtitre plate containing 90 μL of Mueller Hinton media per well. Bacteria were added to the plate from an overnight culture at a final concentration of 2–7 x 10^5 CFU/mL and incubated overnight at 37°C. The MIC is defined as the concentration at which no growth was observed.
(§2) Screening of peptoid antimicrobial activity against a panel of multidrug resistant superbugs was done according to the protocol described in the manuscript. The bacterial strains used in this panel included; P. aeruginosa PAO1 strain H103 [1], P. maltophilia ATCC#13637, S. aureus ATCC#25923 [1], E. faecalis ATCC#29212 [2], and E. cloacae 218R, constitutively expressing Class C chromosomal β-lactamase, were from the Hancock lab strains collection. An MRSA clinical isolate was kindly provided by Anthony Chow (Vancouver General Hospital, Vancouver, Canada). Two Klebsiella pneumoniae and two E. coli clinical isolates expressing extended spectrum β-lactamases (ESBL) were kindly provided by George Zhanel (Health Sciences Centre, Winnipeg, Canada). Vancomycin-resistant clinical isolates of Enterococcus faecalis and E. faecium were obtained from Ana M. Paccagnella (BC Centre for Disease Control, Vancouver, Canada). Three clinical isolates (#9, #198 and #213) of multi-drug resistant P. aeruginosa, were kindly provided by Carlos Kiffer (University of São Paulo, Brazil). […] Three P. aeruginosa clinical isolates of the Liverpool epidemic strain (LES) (H1027, H1030 and LES400) were all kindly provided by Craig Winstanley (University of Liverpool, UK). […] All tested bacterial strains were categorized as biohazard level 2 pathogens.

Assay [2] relates to K. pneumonia 61962 (ESBL). To be noted: Klebsiella pneumoniae. As for the experimental part:
as §1, §2

Another assay has as its system P. aeruginosa 198 (MDR). To be noted: Pseudomonas aeruginosa. As for the experimental part: as §1, §2
Another assay has as its system E. faecium T62764 (VRE). To be noted: Enterococcus faecium, VRE. As for the experimental part:
as §1, §2

In a further assay the test system is P. aeruginosa 9 (MDR). To be noted: Pseudomonas aeruginosa. As for the experimental part: as §1, §2
The test system of a further assay is S. aureus C623 (MRSA). The following applies: Staphylococcus aureus, MRSA. The method, then: as §1, §2
Assay [3] relates to P. aeruginosa H103 (wild type). To be noted: Pseudomonas aeruginosa. As for the experimental part:
as §1, §2

Another assay has as its system E. faecalis ATCC29212. To be noted: Enterococcus faecalis, ATCC29212. As for the experimental part:
as §1, §2

For the next assay, the system named is E. coli 64771 (ESBL). The following applies: Escherichia coli. The method, then:
as §1, §2

Assay [4] has as its system P. aeruginosa LES400 (MDR). To be noted: Pseudomonas aeruginosa. As for the experimental part:
as §1, §2

A further assay deals with E. coli 63103 (ESBL). The following applies: Escherichia coli. The method, then: as §1, §2
The test system of assay [5] is P. aeruginosa H1027 (MDR). To be noted: Pseudomonas aeruginosa. As for the experimental part:
as §1, §2

For another assay, the system named is E. faecium mic80 (VRE). To be noted: Enterococcus faecium, VRE. The method, then:
as §1, §2

The subject of a further assay is P. maltophilia ATCC13637. The following applies: Stenotrophomonas maltophilia, ATCC13637. The method, then:
as §1, §2

For another assay, the system named is S. aureus ATCC25923. The following applies: Staphylococcus aureus, ATCC25923. The method, then:
as §1, §2

A further assay deals with E. faecalis F43559 (VRE). To be noted: Enterococcus faecalis, VRE. As for the experimental part:
as §1, §2

The next assay deals with P. aeruginosa 213 (MDR). To be noted: Pseudomonas aeruginosa. The method, then:
as §1, §2

A further assay concerns E. faecalis W61950 (VRE). To be noted: Enterococcus faecalis, VRE. As for the experimental part: as §1, §2
Assay [6] relates to P. aeruginosa H1030 (MDR). To be noted: Pseudomonas aeruginosa. The method, then:
as §1, §2

Assay [7] concerns E. cloacae 218R Class C β-lactamase. To be noted: Enterobacter cloacae. As for the experimental part:
as §1, §2

≈ marks a conversion by molar mass, not a printed value. Some results are limits rather than exact numbers.

Take `O=C(O)c1cn(C2CC2)c2cc(N3CCNCC3)c(F)cc2c1=O` [Ciprofloxacin, reference compound]: the MIC in assay [1] came to 64 µg/mL (≈ 193 µM); in assay [2], 0.1 µg/mL (≈ 0.302 µM); against P. aeruginosa 198 (MDR), 32 µg/mL (≈ 96.6 µM); with E. faecium T62764 (VRE) it was 128 µg/mL (≈ 386 µM); in the assay with P. aeruginosa 9 (MDR), 128 µg/mL (≈ 386 µM); in the assay with S. aureus C623 (MRSA) it was 2 µg/mL (≈ 6.04 µM). In addition, the MIC in assay [3] is 0.1 µg/mL (≈ 0.302 µM); against E. faecalis ATCC29212, 0.3 µg/mL (≈ 0.905 µM); against E. coli 64771 (ESBL), more than 128 µg/mL; in assay [4] it was 0.5 µg/mL (≈ 1.51 µM); with E. coli 63103 (ESBL), more than 128 µg/mL; in assay [5], 1 µg/mL (≈ 3.02 µM). Further, the MIC was 32 µg/mL (≈ 96.6 µM) against E. faecium mic80 (VRE); 0.3 µg/mL (≈ 0.905 µM) in the assay with P. maltophilia ATCC13637; 0.1 µg/mL (≈ 0.302 µM) in the assay on S. aureus ATCC25923; 32 µg/mL (≈ 96.6 µM) against E. faecalis F43559 (VRE); 64 µg/mL (≈ 193 µM) against P. aeruginosa 213 (MDR); 32 µg/mL (≈ 96.6 µM) against E. faecalis W61950 (VRE). The MIC in assay [6] was 0.3 µg/mL (≈ 0.905 µM).

As for `C[C@@H](O)[C@H]1C(=O)N2C(C(=O)O)=C(SCCN=CN)C[C@H]12` [Imipenem, reference compound], the MIC in [1] was 0.1 µg/mL (≈ 0.334 µM); in assay [2], 0.1 µg/mL (≈ 0.334 µM); with P. aeruginosa 198 (MDR) it was 32 µg/mL (≈ 107 µM); against E. faecium T62764 (VRE), more than 128 µg/mL; against P. aeruginosa 9 (MDR) it was 128 µg/mL (≈ 428 µM); in the assay with S. aureus C623 (MRSA), 0.1 µg/mL (≈ 0.334 µM). Further, the MIC is 2 µg/mL (≈ 6.68 µM) in assay [3]; 0.5 µg/mL (≈ 1.67 µM) in the assay on E. faecalis ATCC29212; 0.1 µg/mL (≈ 0.334 µM) against E. coli 64771 (ESBL); 1 µg/mL (≈ 3.34 µM) in assay [4]; 0.1 µg/mL (≈ 0.334 µM) against E. coli 63103 (ESBL); 0.1 µg/mL (≈ 0.334 µM) in [7]. Further, the MIC came to 8 µg/mL (≈ 26.7 µM) in assay [5]; 128 µg/mL (≈ 428 µM) in the assay on E. faecium mic80 (VRE); 128 µg/mL (≈ 428 µM) in the assay with P. maltophilia ATCC13637; 0.1 µg/mL (≈ 0.334 µM) in the assay with S. aureus ATCC25923; 2 µg/mL (≈ 6.68 µM) in the assay on E. faecalis F43559 (VRE); 128 µg/mL (≈ 428 µM) with P. aeruginosa 213 (MDR). The same molecule showed an MIC against E. faecalis W61950 (VRE) of 2 µg/mL (≈ 6.68 µM).

Consider `NC[C@H]1O[C@H](O[C@H]2[C@H](O)[C@@H](O[C@H]3O[C@H](CO)[C@@H](O)[C@H](N)[C@H]3O)[C@H](N)C[C@@H]2N)[C@H](N)C[C@@H]1O` [Tobramycin, reference compound], for which the MIC in [1] was 16 µg/mL (≈ 34.2 µM); in [2], 32 µg/mL (≈ 68.4 µM); against P. aeruginosa 198 (MDR), more than 128 µg/mL; in the assay with E. faecium T62764 (VRE), more than 128 µg/mL; in the assay with P. aeruginosa 9 (MDR), more than 128 µg/mL; against S. aureus C623 (MRSA) it was more than 128 µg/mL. The MIC in assay [3] turned out to be 0.5 µg/mL (≈ 1.07 µM); against E. faecalis ATCC29212, 16 µg/mL (≈ 34.2 µM); against E. coli 64771 (ESBL), 128 µg/mL (≈ 274 µM); in assay [4] it was 4 µg/mL (≈ 8.56 µM); in the assay on E. coli 63103 (ESBL), 64 µg/mL (≈ 137 µM); in assay [7], 0.5 µg/mL (≈ 1.07 µM). For the same molecule, the MIC in [5] is 32 µg/mL (≈ 68.4 µM); with E. faecium mic80 (VRE), 128 µg/mL (≈ 274 µM); in the assay with P. maltophilia ATCC13637, 4 µg/mL (≈ 8.56 µM); against S. aureus ATCC25923, 0.3 µg/mL (≈ 0.642 µM); against E. faecalis F43559 (VRE), 32 µg/mL (≈ 68.4 µM); in the assay with P. aeruginosa 213 (MDR) it was more than 128 µg/mL. The MIC in the assay on E. faecalis W61950 (VRE) was more than 128 µg/mL; in assay [6], 8 µg/mL (≈ 17.1 µM).
